According to patent US11752156B2, “Compositions and methods for treating hyperproliferative skin disorders” (Athenex HK Innovative Limited, priority 2018, dated 2023):

Key:
[1] = system: cell proliferation/growth; assay: combined treatment with KX01 and tazarotene, inhibition of cell proliferation/growth; type: cell-based
Description: Examples of suitable retinoids include retinol, retinal, retinoic acid isotretinoin, alitreninoin, etretinate, acitretin, adapalene, bexarotene, and/or tazarotene. FIGS. 7 and 8 show the effects of tazarotene on growth of cells in culture, including CCD-1106 KERTr keratinocytes (FIG. 7) and A431 cells (epidermoid cells obtained from a human squamous cell carcinoma, FIG. 8).

tubulin polymerization = conditions: cited from earlier work
SRC-kinase = SRC-kinase (Homo sapiens, UniProt P12931); conditions: cited from earlier work
Chain of SRC-kinase (P12931 whole entry): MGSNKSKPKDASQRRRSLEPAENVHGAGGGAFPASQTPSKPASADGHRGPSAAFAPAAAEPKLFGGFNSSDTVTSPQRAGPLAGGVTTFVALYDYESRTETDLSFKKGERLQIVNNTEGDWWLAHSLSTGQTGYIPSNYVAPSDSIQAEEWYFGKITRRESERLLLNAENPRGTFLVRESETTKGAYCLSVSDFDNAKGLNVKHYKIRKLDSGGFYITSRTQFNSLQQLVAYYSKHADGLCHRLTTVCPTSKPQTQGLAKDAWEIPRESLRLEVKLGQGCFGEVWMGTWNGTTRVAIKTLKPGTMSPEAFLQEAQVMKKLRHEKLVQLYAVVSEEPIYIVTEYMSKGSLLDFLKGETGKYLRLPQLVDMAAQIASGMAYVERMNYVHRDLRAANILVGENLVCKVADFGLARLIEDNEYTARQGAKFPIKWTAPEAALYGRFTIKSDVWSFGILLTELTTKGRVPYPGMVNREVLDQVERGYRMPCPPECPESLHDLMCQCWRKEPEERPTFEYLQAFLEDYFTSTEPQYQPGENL

SMILES: O=C(Cc1ccc(-c2ccc(OCCN3CCOCC3)cc2)cn1)NCc1ccccc1 [KX01, N-benzyl-2-(5-{4-[2-(morpholine-4-yl)ethoxy]phenyl}pyridine-2-yl)acetamide]
- H [1]: 3.3
- IC50 [1]: 45 nM
- Imax [1]: 0.92
- inhibition of tubulin polymerization (tubulin polymerization): inhibits tubulin polymerization
- SRC-kinase inhibition (SRC-kinase): inhibit SRC-kinase
